For test [1], the target named is T1, human recombinant ATX (Homo sapiens (Human), UniProt Q13822). As to the kind of experiment: ATX inhibition, hydrolysis of nucleotide substrate pNP-TMP. It is filed as biochemical. The conditions noted are these: 1 mM pNP-TMP, 4 nM ATX, compound 0 to 1 μM. The method, then:
(§1) ATX Generation: Human recombinant ATX was expressed as published previously, using Sf9 Spodoptera frugiperda ovary cells (Invitrogen, Carlsbad, Calif.).^13 Suspension cells were grown to a 1 liter quantity at a concentration of 1×10^6 cells/ml in Sf-900 III serum-free medium (Invitrogen) supplemented with 50 U/ml penicillin and 50 μg/ml streptomycin at 27° C. with agitation. Cells were then infected with high-titer baculovirus generated via Bac-to-Bac Baculovirus Expression System (Invitrogen) using the pCMV5 mammalian expression vector containing the C-terminal FLAG-tagged human ATX sequence (a generous gift from Dr. Junken Aoko, ohoku University, Aoba-ku, Sendai, Japan) subcloned into the pFastBacl transfer vector. […] Resultant ATX was then concentrated via centrifugation in Amicon Ultra 30,000 molecular weight cut off filter units (Millipore, Billerica, Mass.) and subsequent buffer exchange into storage buffer comprised of 50 mM Tris, pH 7.4 with 20% (v/v) ethylene glycol. Protein was held at −80° C. for long-term storage.
(§2) ATX Inhibition: ATX activity was assessed via hydrolysis of the synthetic, lipid-like FRET-based substrate FS-3 (Echelon Biosciences, Salt Lake City, Utah) or via hydrolysis of the nucleotide substrate p-nitrophenyl thymidine 5′-monophosphate (pNP-TMP) as described previously.^2 Reaction wells were loaded in 60 μl volumes in triplicate wells of half-area, black-wall 96-well plates in assay buffer consisting of 50 mM Tris, 140 mM NaCl, 5 mM KCl, 1 mM CaCl2, 1 mM MgCl2, […] BSA, pH 8.0. […] Fluorescence was read every 2 minutes for 1 hour at excitation/emission wavelengths of 485/528 nm for FS-3 hydrolysis or 405 nm absorbance for pNP-TMP hydrolysis using a FlexStation 3 microplate reader (Molecular Devices, Sunnyvale, Calif.). Data (relative fluorescence or absorbance) were then recorded as a mean value of the triplicates for each sample versus time. […] In the case of mechanism determination, the linear fluorescence data from time 10 minutes to 30 minutes were then transformed using a carboxyfluorescein standard curve to determine product concentration and plotted separately. Linear trend lines were inserted using Microsoft Excel, the slope of which represent the rates of reaction for each substrate concentration. This reaction rate data for each inhibitor concentration were then plotted against substrate (FS-3) concentration and simultaneously fitted via non-linear regression in the Michaelis-Menten equations for competitive, non-competitive, uncompetitive, and mixed-mode inhibition using GraphPad Prism version 5.0a. Mechanism of inhibition was determined by which curve fit had the best global fit (R^2 value).

For test [2], the target named is T1, human recombinant ATX. Kind of test: ATX inhibition, hydrolysis of FRET substrate FS-3. The conditions noted are these: for IC50: 1 μM FS-3, 4 nM human recombinant ATX, 1 hour time point, read-out: IC50 (nM ± SD) vs FS-3. The test is classed as biochemical. On the procedure:
as §1, §2

Another test deals with LPA1 receptor (Homo sapiens (Human), UniProt Q92633). As to the kind of experiment: LPA-mediated Ca2+ mobilization, LPA1 RH7777 cells. It is filed as cell-based. The conditions noted are these: for IC50: IC50 of compound in presence of EC50 concentration of LPA 18:1, read-out: EC50 or IC50 (μM), LPA1 RH7777; for Emax (% LPA), LPA1 RH7777: normalized to LPA 18:1 Emax. On the procedure:
Cell Culture: LPA1 and LPA3 RH7777 rat hepatoma cells were generated in-house as described previously^34 and maintained in DMEM supplemented with 10% FBS and 2 mM L-glutamine with 250 μg/ml G418. LPA2 MEF mouse embryonic fibroblast cells were also derived from LPA1 and LPA2 double knockout mouse embryos as described previously^35 and maintained in DMEM supplemented with 10% FBS, 2 mM L-glutamine, 100 U/ml penicillin and 100 μg/ml streptomycin. LPA4 CHO chinese hamster ovary cells were a generous gift from Dr. Takao Shimizu (Tokyo University, Tokyo, Japan) and were maintained in Ham's F12 medium supplemented with 10% FBS, 2 mM L-glutamine and 350 μg/ml G418. LPA5 B103 rate neuroblastoma cells were derived in house via lentiviral transduction of FLAG-tagged LPA5 and puromycin selection as published^36 and maintained in DMEM supplemented with 10% FBS and 0.4 μg/ml puromycin. All cells were maintained at 37° C. with 5% CO2 in a humidified atmosphere.
Calcium Mobilization: As published previously, LPAR activation leads to transient calcium mobilization. […] All cells were plated in triplicate in 96-well, black-wall plates at a density of 5×10^4 cells per well and allowed to adhere overnight. LPA1 and LPA3 RH7777 cells were plated in poly-L-lysine coated plates. LPA5 B103 cells were plated in Matrigel-coated plates. After adherence, cells were serum-deprived in Krebs buffer consisting of 10 mM HEPES, pH 7.4 with 120 mM NaCl; 5 mM KCl; 1.8 mM CaCl2; 0.62 mM MgSO4; 6 mM D-glucose. LPA1 RH7777, LPA3 RH7777 and LPA5 B103 cells were serum-deprived for 4 hours, while LPA2 MEF cells were serum-deprived for 1 hour, and LPA4 CHO cells were not serum-deprived. Fura 2-AM was then loaded for 30 minutes at a concentration of 4.5 μg/ml in Krebs buffer with 0.45% (v/v) Pluronic F-127 (and additionally 0.1% BSA and 2.5 mM Probenicid for LPA4 CHO cells), after which cells were switched to fresh Krebs buffer. […] Fluorescence corresponding to calcium mobilization was immediately monitored upon addition every 3.42 seconds over a span of 70 seconds total at excitation/emission wavelengths of 340/510 and 380/510 nm. […] GraphPad Prism version 5.0a was then used to plot the data and fit non-linear regression curves in a variable slope model in order to determine the pharmacodynamics (EC50 or IC50) of the compounds in Ca^2+ mobilization.
(Calcium flux is commonly read through the fluorescence of an indicator in the cells.)

The subject of test [3] is A2058 human melanoma cells. Kind of test: In vitro invasion assay (boyden chamber, matrigel). The test is classed as cell-based. The settings on record: recombinant ATX plus 1 μM 18:1 LPC, 20 h, read-out: IC50 (nM) in cell invasion assay. The method, then: The boyden chamber assay was used to assess the effect of three of the benzene sulfonamide analogues on cell invasion of A2058 human melanoma cells in vitro. The A2058 cells invade the matrigel layer in an LPA-dependent manner. Therefore, exogenous LPC and recombinant ATX was used as a source of LPA. Firstly, the compounds were screened at 10 μM concentration alongside BMP 22, a potent ATX inhibitor^31. […] Subsequently, dose response curves for compounds 3a, 3b and 14 were generated (FIG. 13B).
In vitro invasion assay—A2058 human melanoma cell line (gift from Dr. Timothy Clair, NCI, National Institutes of Health) was cultured in Dulbecco's modified Eagle's medium (DMEM) supplemented with 10% (V/V) FBS, 100 U/mL penicillin, 100 μg/mL streptomycin and 2 mM L-glutamine (Life Technologies). Cell invasion was performed using the 24-well BD Biocoat™ tumor invasion system (BD Biosciences, 8 μm-pore size). Briefly, the matrigel coating was rehydrated with PBS at 37° C. for 2 h. After removal of PBS, 5×10^4 A2058 cells in serum-free DMEM supplemented with 0.1% BSA were plated to each upper chamber. […] The fluorescent invaded cells were measured using the FLEXstation II plate reader (Molecular Devices) at excitation and emission wavelengths of 485 and 530 nm, respectively.

“And” between values parts separate entries of the source, which are not always exact repeats. Equal values may be shown once.

Chain of LPA1 receptor (Q92633 whole entry): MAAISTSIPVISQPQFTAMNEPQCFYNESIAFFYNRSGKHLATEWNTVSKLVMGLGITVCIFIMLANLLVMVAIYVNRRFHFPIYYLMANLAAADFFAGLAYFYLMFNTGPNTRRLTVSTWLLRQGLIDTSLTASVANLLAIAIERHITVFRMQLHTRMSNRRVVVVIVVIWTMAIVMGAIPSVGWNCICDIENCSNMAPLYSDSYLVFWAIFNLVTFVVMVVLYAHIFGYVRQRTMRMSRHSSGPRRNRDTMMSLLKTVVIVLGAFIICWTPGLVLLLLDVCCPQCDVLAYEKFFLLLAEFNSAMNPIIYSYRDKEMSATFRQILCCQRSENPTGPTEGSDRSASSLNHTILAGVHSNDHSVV

On to `O=C(Nc1cc(F)c(Cl)c(F)c1)c1cc(S(=O)(=O)N2CCOCC2)c(Cl)cc1Cl` [Compound 3f, 2,4-dichloro-N-(4-chloro-3,5-difluorophenyl)-5-(morpholinosulfonyl)benzamide], for which the “pNP-TMP Inhibition” value on human recombinant ATX [1] is “None”. Besides, the half-inhibitory concentration (IC50) (in general, the point on the concentration scale where inhibition reaches its midpoint) at human recombinant ATX [2] is 83 nM and 83.7 nM. Besides, at LPA1 receptor, the IC50 was determined as 3.96 µM and the “Emax (% LPA), LPA1 RH7777” value stood at 38.58 % LPA.
For `O=C(Nc1cc(F)c(F)c(F)c1)c1cc(S(=O)(=O)N2CCOCC2)c(Cl)cc1Cl` [Compound 3b, 2,4-dichloro-5-(morpholinosulfonyl)-N-(3,4,5-trifluorophenyl)benzamide], the “pNP-TMP Inhibition” value on human recombinant ATX [1] is “sparing effects and None”. On human recombinant ATX [2] (mechanism of inhibition, FS-3 0 to 10 μM, inhibitor 0, 0.5×IC50 or 2×IC50), the Mechanism result is “Competitive”. The IC50 in test [3] is 528 ± 13.9 nM. Further, at LPA1 receptor, the IC50 is 9.1 µM and the “Emax (% LPA), LPA1 RH7777” value was determined as 37.99 % LPA.
`O=C(Nc1cc(Cl)c(F)c(Cl)c1)c1cc(S(=O)(=O)N2CCOCC2)c(Cl)cc1Cl` [Compound 3g, 2,4-dichloro-N-(3,5-dichloro-4-fluorophenyl)-5-(morpholinosulfonyl)benzamide]: the “pNP-TMP Inhibition” value on human recombinant ATX [1] is listed as “None”. Besides, the concentration for half-maximal inhibition (IC50) on human recombinant ATX [2] is 40.09 ± 0.33 nM; at LPA1 receptor it was 11.9 µM. Besides, on LPA1 receptor, the “Emax (% LPA), LPA1 RH7777” value amounted to 36.08 % LPA.
As to `O=C(Nc1ccc(F)c(F)c1)c1cc(S(=O)(=O)N2CCOCC2)c(Cl)cc1Cl` [Compound 3a, 2,4-dichloro-N-(3,4-difluorophenyl)-5-(morpholinosulfonyl)benzamide], on human recombinant ATX [1], the “pNP-TMP Inhibition” value is “None”. At human recombinant ATX [2], the “fold IC50 improvement relative to screening hit 918013” value is “four-fold” and the IC50 worked out at 31.5 ± 2.11 nM. Further, the IC50 in test [3] worked out at 1478 ± 12.3 nM.
